pKi: −log10 of the molar value.
Key:
KcsA K^+ channel [1] = target: T1, KcsA K^+ channel (Streptomyces lividans, UniProt P0A334, Y82C); assay: single-channel recording in planar lipid bilayer, block of open-channel current; assay type: biochemical
T1 sequence (P0A334 1-160 Y82C): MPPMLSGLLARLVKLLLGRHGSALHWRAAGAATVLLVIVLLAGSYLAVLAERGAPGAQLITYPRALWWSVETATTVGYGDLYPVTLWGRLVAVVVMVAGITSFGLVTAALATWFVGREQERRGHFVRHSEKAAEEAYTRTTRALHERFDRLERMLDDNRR

KcsA K^+ channel [2] = target: T2, KcsA K^+ channel (Streptomyces lividans, UniProt P0A334); assay: as above; assay type: biochemical
T2 sequence (P0A334 1-160): T1 sequence (P0A334 1-160 Y82C)

Work on `CC[N+](CC)(CC)CC` [TEA, tetraethylammonium] yielded a pKi (KcsA K^+ channel [1]) of 1.64 and a pKi (KcsA K^+ channel [2]) of 2.49.
